# Reference: patent publication US20210145801A1, “THERAPY FOR PROTEIN MISFOLDING DISEASE” (WREN THERAPEUTICS LIMITED, priority 2018, published 2021)
# Entries after “also recorded” stand apart in the source; their conditions may differ.
# What was measured:
# Aβ40 = biological target: T1, Aβ40 (Homo sapiens, UniProt P05067); assay: Aβ40 aggregation kinetics; assay type: biochemical; conditions: 10 μM Aβ40; 1.25-fold excess
# T1 construct: similar kinetics experiments were performed on the 40-residue isoform, Aβ40
# Protocol: For the experiments monitoring Aβ40 aggregation kinetics, the experiments were performed similarly to those described above for Aβ42 at a concentration of 10 μM of Aβ40 in the absence or presence of 1.25-fold excess of Netoglitazone.
# [1] = tested on: Aβ1-42Neur worms (CL2355); assay: Chemotaxis assay in Aβ1-42Neur worms; assay type: in vivo, C. elegans; conditions: 5 μM; 5 days at 24° C.; day 6 of adulthood
# Protocol: Chemotaxis measurements were carried out as previously described (O. Margie, C. Palmer, I. Chin-Sang, C. elegans Chemotaxis Assay. J Vis Exp, e50069 (2013)) and as illustrated in FIG. 6C. Briefly, adult synchronized transgenic C. elegans CL2355 worms and wild-type healthy worms were incubated with or without 5 μM Netoglitazone for 5 days 24° C. At day 6 of adulthood the worms were then collected, washed with M9 buffer three times, and assayed in 9 cm screening plates (1.9% agar, 1 mM CaCl2), 1 mM MgSO4, and 25 mM phosphate buffer, pH 6.0) seeded with 50 μl of a 10× culture of Op50 Bacteria or sterile water, as attractant or test conditions, respectively and in combination with 1 μl of 1M Levamisole. Ca. 200 worms were placed in the central quadrant of the plate and incubated at 24° C. for 8 h, after which the chemotaxis index (CI) was scored. The CI was defined as follows (O. Margie et al (2013)):
# (number of worms at the attractant locations−number of worms at the control locations)/total number of worms on the plate
# Worms that were remaining in the central quadrant were excluded.
# Aβ42 oligomers = biological target: T2, Aβ42 oligomers (Homo sapiens, UniProt P05067); assay: ELISA with oligomer-specific antibody; assay type: biochemical; conditions: 5 μM Aβ42; 5-fold excess; at half-time of Aβ42 alone
# T2 construct: made in house; host or cells: E. coli BL21 Gold (DE3)
# Protocol: 20 μl Aliquots were taken at the t50 (i.e. half-time) from aggregation reactions of 5 μM Aβ42 in the absence and in the presence of 5-fold excess of Netoglitazone. Samples were then immobilised on a 96-well Maxisorp ELISA plate (Nunc, Roskilde, Denmark) with no shaking for 1 h at room temperature. The plate was then washed three times with 20 mM Tris pH 7.4, 100 mM NaCl and incubated in 20 mM Tris pH 7.4, 100 mM NaCl, 5% BSA under constant shaking overnight at 4° C. The day after the plate was washed six times with 20 mM Tris pH 7.4, 100 mM NaCl and then incubated with 30 μl solutions of 5 μM oligomer-specific antibody under constant shaking either for 1 hour or overnight at room temperature. At the end of this incubation, the plate was washed six times with 20 mM Tris pH 7.4, 100 mM NaCl and incubated with 30 μl solutions of Rabbit polyclonal to 6× His Tag® HRP conjugated (Abcam, Cambridge, UK) at a dilution of 1:4000 in 20 mM Tris pH 7.4, 100 mM NaCl, 5% BSA under shaking for 1 hour at room temperature. […] Finally, the amount of bound oligomer-specific antibody was quantified by using 1-Step™ Ultra TMB-ELISA Substrate Solution (ThermoFisher Scientific, Waltham, Mass., United States), according to manufacturer instructions, and measuring the absorbance at 450 nm by means of a CLARIOstar plate reader (BMG Labtech, Aylesbury, UK).
# control animals (N2) = assay: Maximum tolerable dose in control animals; parameters: species or system C. elegans; conditions: in vivo
# Protocol: Briefly, Netoglitazone stocks (5 mM in 100% DMSO) were used at an appropriate concentration to seed 9-cm NGM plates. Plates were then placed in a laminar flow hood at room temperature (22° C.) for up to 4 hours to dry. C. elegans cultures were then transferred onto media seeded with compound as L4 stage or Day 3 for late treatments and incubated at 24° for the whole experiment. Experiments were carried out at different Netoglitazone concentrations ranging from 0.05 to 500 μM in 1% DMSO. As controls, plates seeded only with 1% DMSO were used.
# [2] = tested on: Aβ3-42::GFPMuscular worms (CL2331); assay: Automated motility assay in Aβ3-42::GFPMuscular worms; assay type: in vivo, C. elegans; conditions: vs untreated worms
# Protocol: CL2331; dvIs37 [myo-3p::GFP::A-Beta (3-42)+rol-6(su1006)] (Aβ3-42::GFPMuscular worms). Maintain at 16C. Roller. Diffuse and aggregated GFP expression in body wall muscle. Low brood size. Sicker at higher temperatures. (C. D. Link et al., The β amyloid peptide can act as a modular aggregation domain. Neurobiol. Dis. 32, 420-425 (2008)); and
# Briefly, Netoglitazone stocks (5 mM in 100% DMSO) were used at an appropriate concentration to seed 9-cm NGM plates. Plates were then placed in a laminar flow hood at room temperature (22° C.) for up to 4 hours to dry. […]
# All C. elegans populations were cultured at 20° C. and developmentally synchronized from a 4 h egg-lay. At 64-72 h post-egg-lay (time zero), individuals were transferred to FUDR plates, and body movements were assessed over the times indicated. At different ages, the animals were washed off the plates with M9 buffer and spread over an OP-50 unseeded 9 cm plate, after which their movements were recorded at 20 fps using a recently developed microscopic procedure (M. Perni et al., Massively parallel C. elegans tracking provides multi-dimensional fingerprints for phenotypic discovery. J. Neurosci. Methods. 306, 57-67 (2018)) for 1 min. Up to 600 animals were counted in each experiment in duplicate unless stated otherwise. […]
# T1 sequence (P05067 672-711 limits assumed): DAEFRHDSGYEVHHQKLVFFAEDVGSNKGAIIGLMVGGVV
# T2 sequence (P05067 671-713): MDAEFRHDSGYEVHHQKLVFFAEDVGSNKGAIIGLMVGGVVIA
compound,measurement,setting,value
O=C1NC(=O)C(Cc2ccc3cc(OCc4ccccc4F)ccc3c2)S1 (centres unmarked) [Netoglitazone],Inhibition of Aβ40 aggregation,Aβ40,able to inhibit Aβ40 aggregation similarly to the 42-residue isoform
same,Chemotaxis index of Aβ1-42Neur worms,[1],chemotaxis index was significantly improved; also recorded: significantly improves the (A) chemotaxis index
same,Aβ42 oligomer concentration (ELISA),Aβ42 oligomers,significant reduction in the Aβ42 oligomer concentration
same,Maximum tolerable dose in control animals,control animals (N2),< 500 µM
same,Motility of Aβ3-42::GFPMuscular worms,[2],significantly improves the motility of Aβ3-42::GFPMuscular worms
